According to patent publication US7449546B2, “Method for extending storage of glutathione solutions and methods for treating Parkinson's disease with said stored glutathione solutions” (Kromar Medical Corporation, priority 2001, dated 2008):
Read-outs that look alike come from different tables or passages of the source.

Columns and labels:
[1] = for [G-SH]/[G-SH]0: storage at 25° C.
Protocol: This solution was stored at room temperature (25° C.) for 74 days.

[2] = for [G-SH]/[G-SH]0: storage at 5° C.
liver cancer = settings: oral, daily amount of 5,000 mg, eight patients; cited from earlier work
[3] = solution temperature lowered by 20° C. from room temperature

Which “concentration of reduced glutathione relative to its initial value” ([1]; room temperature (25° C.), within three weeks, 180 mg/ml, pH 6.4) does the source give for `N[C@@H](CCC(=O)N[C@@H](CS)C(=O)NCC(=O)O)C(=O)O` [reduced glutathione] here?
Its value is 90%.

What about the “safe storage time in aqueous solution” value ([1]; room temperature, absence of oxidation catalysts, criterion at least 90% of initial concentration) of the same molecule?
Its value is “cannot be safely stored in aqueous solution at room temperature for longer than three weeks”.

What about the “[G-SH]/[G-SH]0” value ([1]; 1 day, 180 mg/ml, pH 6.4) of the same molecule?
The value was 0.94.

What about the “[G-SH]/[G-SH]0” value ([1]; 2 days, 180 mg/ml, pH 6.4) of the same molecule?
Its value is 0.99.

And the “[G-SH]/[G-SH]0” value ([1]; 3 days, 180 mg/ml, pH 6.4)?
Its value is 0.99.

What about the “[G-SH]/[G-SH]0” value ([1]; 7 days, 180 mg/ml, pH 6.4) of the same molecule?
Its value is 0.98.

And the “[G-SH]/[G-SH]0” value ([1]; 14 days, 180 mg/ml, pH 6.4)?
The value was 0.95.

And the “[G-SH]/[G-SH]0” value ([1]; 21 days, 180 mg/ml, pH 6.4)?
Its value is 0.90.

And the “[G-SH]/[G-SH]0” value ([1]; 28 days, 180 mg/ml, pH 6.4)?
Its value is 0.89.

And the “[G-SH]/[G-SH]0” value ([1]; 56 days, 180 mg/ml, pH 6.4)?
The value was 0.78.

What about the “[G-SH]/[G-SH]0” value ([1]; 74 days, 180 mg/ml, pH 6.4) of the same molecule?
The value was 0.68.

What about the dimerization of glutathione [2, 3] of the same molecule?
The dimerization of glutathione was “essentially stopped”.

And the “storage period of the reduced glutathione solution” value [2, 3]?
Its value is “significantly greater than four months”.

And the “[G-SH]/[G-SH]0” value ([2]; 1 day, 189 mg/ml, pH 6.4)?
The value was 1.02.

And the “[G-SH]/[G-SH]0” value ([2]; 2 days, 189 mg/ml, pH 6.4)?
The value was 1.01.

And the “[G-SH]/[G-SH]0” value ([2]; 3 days, 189 mg/ml, pH 6.4)?
The value was 1.01.

What about the “[G-SH]/[G-SH]0” value ([2]; 7 days, 189 mg/ml, pH 6.4) of the same molecule?
Its value is 1.02.

What about the “[G-SH]/[G-SH]0” value ([2]; 14 days, 189 mg/ml, pH 6.4) of the same molecule?
Its value is 1.00.

And the “[G-SH]/[G-SH]0” value ([2]; 21 days, 189 mg/ml, pH 6.4)?
Its value is 0.99.

What about the “[G-SH]/[G-SH]0” value ([2]; 28 days, 189 mg/ml, pH 6.4) of the same molecule?
The value was 1.02.

And the “[G-SH]/[G-SH]0” value ([2]; 56 days, 189 mg/ml, pH 6.4)?
The value was 1.00.

What about the “[G-SH]/[G-SH]0” value ([2]; 84 days, 189 mg/ml, pH 6.4) of the same molecule?
Its value is 1.00.

What about the “[G-SH]/[G-SH]0” value ([2]; 112 days, 189 mg/ml, pH 6.4) of the same molecule?
Its value is 0.98.

What about the “decrease of reduced glutathione concentration over time” value ([2]; stored at 5° C., monitored for four months, 189 mg/ml, 0.005M octylammonium orthophosphate, pH 6.4) of the same molecule?
Its value is “no decrease over time”.

And the “effects in patients with liver cancer” value (liver cancer)?
The value was “modest effects in women but not in men”.
